# According to patent US7728002B2, “Use of pyrrolopyridine compounds for activating PPAR receptors and treatment of conditions involving such receptors” (Laboratoires Fournier S.A., priority 2005, dated 2010):
# Legend:
# db/db mice = db/db mice model: serum glucose, triglycerides, cholesterol; type: in vivo; details: serum 4 hours after final gavage
# Procedure: The test protocol is as follows:
# Homozygous male C57BL/Ks-db mice (db/db mice), 11-13 weeks old at the start of the studies, are divided into groups of 9-10 animals. The products are administered orally, once a day for 5 days. A group of mice receives the vehicle alone (methylcellulose solution at 0.5% or 1%). A blood sample is taken from the retro-orbital sinus before treatment and 4 hours after the final gavage. After centrifugation, the serum is collected and the levels of cholesterol, triglycerides and glucose are measured using a multiparameter analyzer with commercial products. The results are expressed as a percentage of variation on the final day relative to the control group.
# [1] = test system: cells of murine muscle origin C2C12; assay: β-oxidation of 14C-oleate on C2C12 cells differentiated as myotubes; type: cell-based; details: 10 μM, 48 hours incubation
# Procedure: A second series of tests was performed with the compounds according to the invention, with the aim of confirming the activity deduced from their affinity for the receptors mentioned previously. This test consists in measuring the β-oxidation on cells of human hepatic origin HuH7 and cells of murine muscle origin C2C12 after differentiation as myotubes. The cells are inoculated in Petri dishes comprising a central well. The products are added to the culture medium and incubated for 48 hours at different concentrations. After incubation for 22 hours, ^14C-radiolabeled oleate (oleate 1-C14) is added to the culture medium. The β-oxidation reaction is stopped two hours later by adding 40% perchloric acid. The CO2 released during the oxidation of the oleate is trapped with KOH solution and then counted. Each test is performed three times. The results are expressed as a percentage of variation relative to the control dishes (dishes without compounds). According to this test, the compounds according to the invention increase the β-oxidation by up to +145% at a concentration of 10 μM on HuH7 cells.
# [2] = 10 mg/kg orally once a day for 5 days
# [3] = 100 mg/kg orally once a day for 5 days
# [4] = 3 mg/kg orally once a day for 5 days
SMILES,"Cholesterol, percentage of variation relative to the control group (db/db mice; [2])","Glucose, percentage of variation relative to the control group (db/db mice; [2])","Triglycerides, percentage of variation relative to the control group (db/db mice; [2])",further results
"O=C(O)CCCc1cc2nc(Cl)ccc2n1S(=O)(=O)c1ccc2ncsc2c1 [Example 4, 1-(6-Benzothiazolylsulfonyl)-5-chloro-1H-pyrrolo[3,2-b]pyridine-2-butanoic acid]",+4%,−57%,−45%,
"CC(C)OC(=O)C(C)(C)Oc1ccc(C(=O)c2ccc(Cl)cc2)cc1 [Fenofibrate, fenofibrate, reference compound]",,,,"Cholesterol, percentage of variation relative to the control group (db/db mice; [3]): +32%; Glucose, percentage of variation relative to the control group (db/db mice; [3]): −9%; Triglycerides, percentage of variation relative to the control group (db/db mice; [3]): −7%"
"O=C(O)CCCc1cc2nc(Cl)ccc2n1S(=O)(=O)c1ccccc1 [Example 10, 5-Chloro-1-(phenylsulfonyl)-1H-pyrrolo[3,2-b]pyridine-2-butanoic acid]",,,,"increase of β-oxidation, percentage of variation relative to control dishes [1]: 70%"
"O=C(O)CCCc1cc2nc(Cl)ccc2n1S(=O)(=O)c1ccc(-c2ccncc2)cc1 [Ex. 293, 5-Chloro-1-[[4-(4-pyridyl)phenyl]sulfonyl]-1H-pyrrolo[3,2-b]pyridine-2-butanoic acid]",+16%,−24%,−15%,
"O=C(O)CCc1cc2nc(Cl)ccc2n1S(=O)(=O)c1ccccc1 [Example 2, 5-Chloro-1-(phenylsulfonyl)-1H-pyrrolo[3,2-b]pyridine-2-propanoic acid]",+41%,−36%,−32%,
"CN(CCOc1ccc(CC2SC(=O)NC2=O)cc1)c1ccccn1 (stereo not shown) [Rosiglitazone, rosiglitazone, reference compound]",,,,"Cholesterol, percentage of variation relative to the control group (db/db mice; [4]): −30%; Glucose, percentage of variation relative to the control group (db/db mice; [4]): −41%; Triglycerides, percentage of variation relative to the control group (db/db mice; [4]): −52%"
"O=C(O)CCCc1cc2nc(C(F)(F)F)ccc2n1S(=O)(=O)c1ccccc1 [Example 20, 1-(Phenylsulfonyl)-5-(trifluoromethyl)-1H-pyrrolo[3,2-b]pyridine-2-butanoic acid]",+13%,−72%,−65%,
"Cc1cc(C)cc(S(=O)(=O)n2c(CCCCC(=O)O)cc3nc(Cl)ccc32)c1 [Ex. 259, 5-Chloro-1-[(3,5-dimethylphenyl)sulfonyl]-1H-pyrrolo[3,2-b]pyridine-2-pentanoic acid]",+32%,−51%,−16%,
